Laboratory results from article doi:10.1101/2025.07.30.663779v2 (biorxiv, 2025).

Assays:
αCD40-mSAs = assay: fluorescence polarization titration; assay type: binding; details: PBS; 20 nM biotin-FITC (Millipore-Sigma cat. 53608); labelled compound
recombinant streptavidin = recombinant streptavidin (Streptomyces avidinii, UniProt P22629); assay: fluorescence polarization titration; assay type: binding; details: PBS; 20 nM biotin-FITC (Millipore-Sigma cat. 53608); labelled compound

- Kd (αCD40-mSAs): 69.2 nM
- Kd (recombinant streptavidin): 20.6 nM
Substance: biotin-FITC
